According to PubChem BioAssay (NCI):
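A five-concentration, 48-hour dose response in 96-well plates underlies each endpoint, interpolated linearly between surrounding concentrations. TGI: concentration producing complete growth inhibition.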

Experiments:
Test in all cases: DTP human tumour cell line panel, 48 h
DMS 114 small cell lung = system: DMS 114 small cell lung
K-562 leukemia = system: K-562 leukemia
RPMI-8226 leukemia = system: RPMI-8226 leukemia
HOP-92 NSCLC = system: HOP-92 NSCLC
UO-31 renal = system: UO-31 renal
SF-268 CNS = system: SF-268 CNS
NCI-H226 lung = system: NCI-H226 lung
SK-MEL-28 melanoma = system: SK-MEL-28 melanoma
HCT-116 colon = system: HCT-116 colon
SK-MEL-2 melanoma = system: SK-MEL-2 melanoma
NCI-H522 lung = system: NCI-H522 lung
LXFL 529 NSCLC = system: LXFL 529 NSCLC
HCC-2998 colon = system: HCC-2998 colon
SN12C renal = system: SN12C renal
SR leukemia = system: SR leukemia
NCI-H460 lung = system: NCI-H460 lung
CCRF-CEM leukemia = system: CCRF-CEM leukemia
MALME-3M melanoma = system: MALME-3M melanoma
M14 melanoma = system: M14 melanoma
HL-60(TB) leukemia = system: HL-60(TB) leukemia
IGROV1 ovarian = system: IGROV1 ovarian
NCI-H23 lung = system: NCI-H23 lung
M19-MEL melanoma = system: M19-MEL melanoma
SF-539 CNS = system: SF-539 CNS
A498 renal = system: A498 renal
UACC-62 melanoma = system: UACC-62 melanoma
MOLT-4 leukemia = system: MOLT-4 leukemia
SNB-78 CNS = system: SNB-78 CNS
SNB-75 CNS = system: SNB-75 CNS
SK-OV-3 ovarian = system: SK-OV-3 ovarian
CAKI-1 renal = system: CAKI-1 renal
786-0 renal = system: 786-0 renal
DMS 273 small cell lung = system: DMS 273 small cell lung
HOP-62 NSCLC = system: HOP-62 NSCLC
DLD-1 colon = system: DLD-1 colon
OVCAR-4 ovarian = system: OVCAR-4 ovarian
COLO 205 colon = system: COLO 205 colon
XF 498 CNS = system: XF 498 CNS
UACC-257 melanoma = system: UACC-257 melanoma
OVCAR-8 ovarian = system: OVCAR-8 ovarian
U251 CNS = system: U251 CNS
A549 NSCLC = system: A549 NSCLC
OVCAR-3 ovarian = system: OVCAR-3 ovarian
RXF 393 renal = system: RXF 393 renal
HS 578T breast = system: HS 578T breast
LOX IMVI melanoma = system: LOX IMVI melanoma
HCT-15 colon = system: HCT-15 colon
KM12 colon = system: KM12 colon
HT29 colon = system: HT29 colon
HOP-18 NSCLC = system: HOP-18 NSCLC
MCF7 breast = system: MCF7 breast
MDA-MB-435 = system: MDA-MB-435
SK-MEL-5 melanoma = system: SK-MEL-5 melanoma
MDA-MB-231 breast = system: MDA-MB-231 breast
TK-10 renal = system: TK-10 renal
OVCAR-5 ovarian = system: OVCAR-5 ovarian
MDA-N = system: MDA-N
SW-620 colon = system: SW-620 colon
ACHN renal = system: ACHN renal
EKVX NSCLC = system: EKVX NSCLC
PC-3 prostate = system: PC-3 prostate
SNB-19 CNS = system: SNB-19 CNS
BT-549 breast = system: BT-549 breast
SF-295 CNS = system: SF-295 CNS
DU-145 prostate = system: DU-145 prostate
NCI/ADR-RES ovarian = system: NCI/ADR-RES ovarian

Cc1ncc(CI)c(CI)c1O
TGI (DMS 114 small cell lung): > 100 µM | TGI (K-562 leukemia): 31.5 µM | TGI (RPMI-8226 leukemia): 31.4 µM | TGI (HOP-92 NSCLC): > 100 µM | TGI (UO-31 renal): 6.28 µM | TGI (SF-268 CNS): 54.7 µM | TGI (NCI-H226 lung): 6.1 µM | TGI (SK-MEL-28 melanoma): 44.6 µM | TGI (HCT-116 colon): 31.4 µM | TGI (SK-MEL-2 melanoma): 42.4 µM | TGI (NCI-H522 lung): 12.7 µM | TGI (LXFL 529 NSCLC): > 100 µM | TGI (HCC-2998 colon): 33.3 µM | TGI (SN12C renal): 35.2 µM | TGI (SR leukemia): 36.7 µM | TGI (NCI-H460 lung): > 100 µM | TGI (CCRF-CEM leukemia): 23.2 µM | TGI (MALME-3M melanoma): 42.5 µM | TGI (M14 melanoma): > 100 µM | TGI (HL-60(TB) leukemia): 5.29 µM | TGI (IGROV1 ovarian): > 100 µM | TGI (NCI-H23 lung): 48.2 µM | TGI (M19-MEL melanoma): > 100 µM | TGI (SF-539 CNS): 43.8 µM | TGI (A498 renal): > 100 µM | TGI (UACC-62 melanoma): > 100 µM | TGI (MOLT-4 leukemia): 41.6 µM | TGI (SNB-78 CNS): > 100 µM | TGI (SNB-75 CNS): 41.2 µM | TGI (SK-OV-3 ovarian): > 100 µM | TGI (CAKI-1 renal): > 100 µM | TGI (786-0 renal): 35.3 µM | TGI (DMS 273 small cell lung): 32.1 µM | TGI (HOP-62 NSCLC): 35.3 µM | TGI (DLD-1 colon): 55.8 µM | TGI (OVCAR-4 ovarian): > 100 µM | TGI (COLO 205 colon): > 100 µM | TGI (XF 498 CNS): 38.4 µM

COc1cc(C(=O)c2cocc2C(=O)c2ccc3c(c2)OCO3)cc(OC)c1OC
TGI (UACC-257 melanoma): > 45.7 µM | TGI (DMS 114 small cell lung): > 100 µM | TGI (K-562 leukemia): > 94.9 µM | TGI (RPMI-8226 leukemia): 32.3 µM | TGI (OVCAR-8 ovarian): 30 µM | TGI (U251 CNS): 8.35 µM | TGI (HOP-92 NSCLC): 35.4 µM | TGI (A549 NSCLC): > 68 µM | TGI (UO-31 renal): 33.9 µM | TGI (SF-268 CNS): 45 µM | TGI (NCI-H226 lung): 21.1 µM | TGI (SK-MEL-28 melanoma): > 49.5 µM | TGI (OVCAR-3 ovarian): 8.15 µM | TGI (RXF 393 renal): 4.43 µM | TGI (HS 578T breast): 5.27 µM | TGI (LOX IMVI melanoma): 30 µM | TGI (HCT-116 colon): 24.4 µM | TGI (HCT-15 colon): 35.3 µM | TGI (SK-MEL-2 melanoma): > 41.7 µM | TGI (NCI-H522 lung): 1.85 µM | TGI (LXFL 529 NSCLC): > 31.6 µM | TGI (KM12 colon): 59.1 µM | TGI (HT29 colon): 5.98 µM | TGI (HOP-18 NSCLC): > 100 µM | TGI (MCF7 breast): > 100 µM | TGI (HCC-2998 colon): 16.9 µM | TGI (SN12C renal): 56.1 µM | TGI (SR leukemia): > 56.2 µM | TGI (NCI-H460 lung): 23.4 µM | TGI (CCRF-CEM leukemia): > 51.6 µM | TGI (MALME-3M melanoma): 29.1 µM | TGI (MDA-MB-435): 0.955 µM | TGI (SK-MEL-5 melanoma): 25.5 µM | TGI (MDA-MB-231 breast): 48.5 µM | TGI (TK-10 renal): 47.2 µM | TGI (M14 melanoma): 33.5 µM | TGI (HL-60(TB) leukemia): 2.06 µM | TGI (IGROV1 ovarian): 48.5 µM | TGI (NCI-H23 lung): 26.2 µM | TGI (OVCAR-5 ovarian): > 66.3 µM | TGI (MDA-N): 0.311 µM | TGI (SW-620 colon): > 57.8 µM | TGI (ACHN renal): > 48.4 µM | TGI (M19-MEL melanoma): > 100 µM | TGI (SF-539 CNS): 1.45 µM | TGI (A498 renal): 26.2 µM | TGI (EKVX NSCLC): > 58.3 µM | TGI (PC-3 prostate): > 35.9 µM | TGI (UACC-62 melanoma): > 47.3 µM | TGI (MOLT-4 leukemia): > 74.7 µM | TGI (SNB-19 CNS): 35.3 µM | TGI (BT-549 breast): 0.552 µM | TGI (SF-295 CNS): 2.48 µM | TGI (SNB-75 CNS): 10.4 µM | TGI (SK-OV-3 ovarian): 47.3 µM | TGI (CAKI-1 renal): 35.7 µM | TGI (786-0 renal): 39.7 µM | TGI (DU-145 prostate): 21.2 µM | TGI (DMS 273 small cell lung): > 100 µM | TGI (HOP-62 NSCLC): 31.3 µM | TGI (NCI/ADR-RES ovarian): 1.3 µM | TGI (DLD-1 colon): > 100 µM | TGI (OVCAR-4 ovarian): > 54.3 µM | TGI (COLO 205 colon): 26.5 µM | TGI (XF 498 CNS): 32.1 µM
